Consider two compounds from US11730178B2, “Extraction method” (THE PRODUCT MAKERS (AUSTRALIA) PTY LTD, priority 2012, dated 2023).

Broadly, the inhibition is the drop in the measured response relative to a control, in per cent.

Assay [1] deals with yeast (Saccharomyces cerevisiae) α-glucosidase. The assay can be described thus: α-Glucosidase inhibition (hydrolysis of 4-methylumbelliferyl-α-D-glucopyranoside, fluorescence). Format: biochemical. Particulars: pH 5.5, 20 minutes at 37° C. On the procedure:
As known in the art, α-glucosidase inhibitory activity can be measured as the ability of test samples to prevent the hydrolysis of 4-methylumbelliferyl-α-D-glucopyranosidase by yeast (Saccharomyces cerevisiae) α-glucosidase using known techniques. As will be understood by the skilled person, acarbose can be included in the assay as a positive control.
α-Glucosidase inhibitory activity is measured as the ability of test samples to prevent the hydrolysis of 4-methylumbelliferyl-α-D-glucopyranosidase by yeast (Saccharomyces cerevisiae) α-glucosidase.
Each sample (0.5 mL) was weighed and freeze-dried to determine its % dry matter. The samples were then resuspended in either dimethyl sulfoxide (DMSO) or DMSO:water (1:1) to a concentration of 15 mg/mL, after which the samples were serially diluted.
The substrate, 4-methylumbelliferyl-α-D-glucopyranoside, and enzyme, yeast α-glucosidase, were prepared in the assay buffer, sodium acetate buffer (pH 5.5). The substrate (final concentration 83 μM, 45 μL) was added to 96-well plates containing 45 μL enzyme (final concentration 1.7 mU/mL) and 10 μL of sample. […] The reaction was stopped by the addition of 100 mM sodium glycine buffer (100 μL, pH 10.6), the plate was shaken for a further 30 seconds, and the fluorescence intensity was measured at λex 355 nm and λem 460 nm. […]

The test system of assay [2] is PEG2 production from 3T3 cells. Put plainly: PEG2 (prostaglandin E2) inhibition in 3T3 cells stimulated with calcium ionophore, EIA kit. Format: cell-based. Particulars: Mus musculus, NIH3T3, at 0.488 μg/mL, read-out: highest PEG2 inhibition observed. The text has this:
An extract according to the invention can also be tested for anti-inflammatory activity. By way of a non-limiting example, the extracts may be tested for prostaglandin E2 (PGE2) activity. As known in the art, PGE2 inhibitory activity can be measured by the ability of test samples to inhibit PGE2 production in 3T3 cells when stimulated with calcium ionophore. As understood in the art, aspirin and ibuprofen may be included in the assay as a positive control. The in vitro production of PEG2 from 3T3 cells was measured using the Cayman Chemical Prostaglandin E2 monoclonal EIA (Enzyme Immuno Assay) kit. The cells were exposed to samples 3 and 6 and stimulated with calcium ionophore. The cell supernatants were then assayed for PEG2 production. The cell cytotoxicity of the samples was tested against 3T3 cells to confirm that the observed PEG2 inhibition was not due to cell cytotoxicity. Aspirin and ibuprofen were used as positive controls.

As for fucoidan, the “α-glucosidase inhibitory activity IC50” value in assay [1] amounted to 0.17 µg/mL.
Regarding `CC(C)Cc1ccc(C(C)C(=O)O)cc1` (centres unmarked) [ibuprofen], the inhibition at 0.488 µg/mL in assay [2] was 42.1%.
